Test results from patent US20100227827A1, “METHOD OF INCREASING TRYPTOPHAN AND NICOTINAMIDE LEVELS IN VIVO” (priority 2006, published 2010).
Values joined by “and” are separate entries in the source; they are usually repeats but may differ in a detail not shown here. Identical values can stand only once. Counter-ions that a name gives are not always drawn. Marks after values point to notes of the source that are not given here. One block for each molecule: values may come before it.

Tests used:
[1] = Molar ratio from neutralization of free organic acid with hydroxides; format: physicochemical; conditions: salt or chelate
Protocol: Determination of salts and chelates of some naturally occurring polyhydroxylated and polycarboxylated organic acids are provided in Table 1. Experimental molar ratios were calculated from neutralization to pH=7.5 of free protonated organic acid (H^+) with sodium, potassium or ammonium hydroxides.

[2] = oral human dose 100 mg/kg (50-200 mg/kg); Smith 1982; cited from earlier work
[3] = tested on: indolediamine oxygenase (IDO); test: IDO activity from tryptophan/kynurenine molar ratio in serum (HPLC); conditions: quinic acid supplementation in vivo; tryptophan and kynurenine in serum
Protocol: Once tryptophan synthesis has been stimulated by the shikimate pathway, it is then further modified by catabolic metabolism via indolediamine oxygenase (IDO) first to kynurenine and/or hydroxtryptophan-serotonin and/or to quinoline-dopamine or to nicotinamde-NAD (energy). The inhibition of IDO activity by quinic acid exposure in vivo favors reduction in immunosuppressive activity. IDO activity was calculated by determining the molar ratios of tryptophan to kynurenine in 200 ul aliquots of 2 M TCA-precipitated serum by high pressure liquid chromatograph (HPLC). The HPLC method has already been published in all its details except the instrument was a HP 1100 series and the column was a XTERRA MSC18 ([…], 4.6 mm×50 mm) (Laich, A, Neurauter, […], Fuchs, D. More rapid method for simultaneous measurement of tryptophan and kyurenine by HPLC. Clinical Chemistry 48 (3): 579-580, 2002). The effect of quinic acid was further characterized on the end products of the shikimate pathway. Accordingly, quinic acid supplementation was analyzed against IDO activity through simultaneous detection of tryptophan and kynurenine. […]

[4] = tested on: spleen cells; test: Mouse 21 day drinking water study, spleen cell count; format: in vivo, C57BL/6 female mice; conditions: mice, after day 21 intervention in drinking water; C-Med-100 4 mg/ml (500 mg/kg), quinic acid 2 mg/ml (250 mg/kg)
Protocol: C57BL/6 female mice were fed 4 mg/ml C-Med-100® or 2 mg/ml quinic acid dissolved in autoclaved tap water for 21 days. The animals were sacrificed, spleens removed and blood collected. The cell samples were analyzed in a […] Corporation, Kobe, Japan) and plasma/serum samples prepared for chemical analysis by HPLC for quinic acid and tryptophan.

[5] = Mouse 21 day drinking water study, plasma/serum HPLC; format: in vivo, C57BL/6 female mice; conditions: mice
Protocol: […] The animals were sacrificed, spleens removed and blood collected. The cell samples were analyzed in a […] Corporation, Kobe, Japan) and plasma/serum samples prepared for chemical analysis by HPLC for quinic acid and tryptophan.

[6] = Single high dose quinic acid time study, serum HPLC; format: in vivo; conditions: human
Protocol: Serum samples of 0.2 and 30 ml were collected from blood, and precipitated with either ethanol or trichloroacetic acid (TCA). After clean-up the supernatants were dried (ethanol precipitated) or used directly. A standard curve was prepared using quinic acid (Sigma) dissolved in distilled water and obeyed the equation y=6012.8x−24698; 20 μl injections of solutions between 0-25 mg/ml were used.
A apparently healthy volunteer drank 6 gm of quinic acid ammonium chelate (Quinmax™) dissolved in 300 ml water over a 15 min period, samples were collected, and then about 40 ml of peripheral blood (4-red topped vacutainers) were allowed to clot at room temperature to prepare serum samples by centrifugation. The serum sampling points were 0.7 hr, 1.7 hr, 2.7 hr, 3.7 hr, 10.5 hr 12.5 hr, hr, 28 hr and 44 hr. 30 ml serum samples were precipitated with 50% ethanol, taken to dryness under a stream of air, and redissolved in 1 ml of methanol for simultaneous HPLC analysis of quinic acid and hippuric acid. The data were reported as quinic acid present in 30 ml of serum. The column used for this experiment was a C18 150×4.6 mm. The mobile phase was 0.1% trifluoroacetic (TFA). The UV detector was set at 220 nm and quinic acid eluted with a retention of 2.26 min and hippuric acid at 8.3 min. Sensitivity of the method was about 1/30=0.033 mg quinic acid/ml serum.
A single high dose of 6000 mg was administered orally to a subject, and then 30 ml serum samples were prepared from whole blood samples taken from 0.7 to 44 hours after exposure. As serum samples were precipitated with ethanol and redissolved in 1 ml […], this allowed for a 30-fold increase in concentration of any quinic acid present in each blood sample, rendering the method extremely sensitive to even small amounts of quinic acid.

[7] = Urinary quinic acid, hippuric acid, tryptophan and nicotinamide by HPLC; format: in vivo, human; conditions: over 9 months, Table 4 and text calculations
Protocol: Blood samples were collected by venal puncture using vacutainers (red top, 10 ml) usually in the morning (a.m.) after 12 hours of fasting. Serum was separated from the blood clot after setting 2 hr on the bench top before centrifugation for 10 min at 1500×g. Sera prepared in this manner were stored at +4° C. until biochemical analysis usually within 1-30 days of collection. Urine samples were collected as a random 50 ml sample in the A.M. during the treatment and follow-up (after treatment for 8 months) periods. Urine was spun at 5000×g for 15 min and the supernatant stored at +4° C. until analyzed within 1 month of collection. After the first analysis all samples were further stored at −20° C. and used for repeat determinations over time. Trial design for the clinical evaluation of Aqua Bimini™ (quinic acid ammonium chelate) was carried out at Lund University beginning Apr. 28, 2006. […] Repeat serum and urine samples were collected throughout the trial period and then pooled into groups for analysis as 6 weeks before (baseline), 4 weeks of intervention (treatment, 36 days) and 8 months dry-out (no treatment). Urine samples were mixed with 1:2:4 v/v/v of: aqueous urine:95% ethanol:ethyl acetate for 10 min with vigorous shaking. The ethyl acetate layer was allowed to separate with gravity at room temperature, and then it was removed with a pipette and evaporated with an air stream to dryness in a vacuum hood. In this manner 1-2 ml of urine were reconstituted in 0.2 ml water or ethanol which represented a 5-10 fold increase in concentration. […] The urine samples were diluted 1:2:4 v/v/v with ethanol and ethyl acetate, and then the ethyl acetate fraction dried, solubilized in 0.2 ml water and used for HPLC analyses with 20 μl injections directly onto a C18 80×4.6 mm. The mobile phase was 0.2% trifluoroacetic (TFA):methanol:acetonitrile (70:30):water in a ratio 8:8:84 (v/v/v). The UV detector was set at 215 nm, and quinic acid eluted with a retention of 0.97-1.05 min and nicotinamide at 2.6-2.9 min. The detection limit in urine was about 1.5 mg/ml for quinic acid and for nicotinamide it was 0.015 mg/ml. […] The urine samples were diluted 1:2:4 v/v/v with ethanol and ethyl acetate, and then the ethyl acetate fraction dried, solubilized in 0.2 ml water and used for HPLC analyses with 20 μl injections directly onto a C18 80×4.6 mm. The mobile phase was 70:30 v/v, 0.2% TFA: 30% methanol. The UV detector was set at 225 nm. Tryptophan eluted after 5.2-5.4 min and hippuric acid after 3.1-3.4 min.

- Determination of structure existing in water [1]: Chelate
SMILES: N.N.N.O=C(O)CC(O)(C(=O)O)C(O)C(=O)O (centres unmarked) [Hydroxy citric acid ammonium salt]

- Determination of structure existing in water ([1]; potassium salt): chelate
SMILES: O=C(O)[C@]1(O)C[C@@H](O)[C@@H](O)[C@H](O)C1 [Quinic acid potassium salt]

- Determination of structure existing in water ([1]; sodium salt): salt
SMILES: O=C(O)[C@]1(O)C[C@@H](O)[C@@H](O)[C@H](O)C1 [Quinic acid sodium salt]

SMILES: N[C@@H](Cc1c[nH]c2ccccc12)C(=O)O [Therapeutic tryptophan, tryptophan]
- Urinary excretion daily sample, Tryptophan (avg) [2]: Tryptophan. = 1.3 mg/liter^c

- IDO activity [3]: inhibits IDO activity
- level of quinic acid, below HPLC detection ([5]; quinic acid 1 mg/ml in drinking water or about 500 mg/kg, 21 days): < 2000 µg/mL
- fraction of total dose taken up into the serum ([6]; in vivo): 0.073%
- quinic acid found in systemic circulation ([6]; in vivo): < 0.1 % of the administered dose
- quinic acid of total dose taken up into the serum ([6]; in vivo): 4.4 mg
- quinic acid either excreted or metabolized ([6]; in vivo, 44 h): 99.9%
- time of maximum uptake of quinic acid into serum ([6]; single oral dose 6000 mg): 10.5 h and 12.5 h
- quinic acid dose excreted unmetabolized in the urine [7]: 40-60%
SMILES: O=C(O)[C@]1(O)C[C@@H](O)[C@@H](O)[C@H](O)C1 [quinic acid]
- In vivo spleen cells mean ± s.d. [4]: 100 ± 10^c ×10^6
- In vivo plasma tryptophan mean ± s.d. ([5]; after day 21 intervention in drinking water, C-Med-100 4 mg/ml (500 mg/kg)): 79.4 ± 2.7^c μM
